Data: US5229381A, “Substituted azetidinones as anti-inflammatory and antidegenerative agents” (Merck & Co., Inc., priority 1991, dated 1993)

Target: T1, human polymorphonuclear leukocyte elastase (Homo sapiens, UniProt P08246)
T1 construct: Crude extract of human polymorphonuclear leukocytes (PMN) containing elastase activity; endogenous in cells; host or cells: human polymorphonuclear leukocytes (crude extract)
T1 sequence (P08246 30-247 limits assumed): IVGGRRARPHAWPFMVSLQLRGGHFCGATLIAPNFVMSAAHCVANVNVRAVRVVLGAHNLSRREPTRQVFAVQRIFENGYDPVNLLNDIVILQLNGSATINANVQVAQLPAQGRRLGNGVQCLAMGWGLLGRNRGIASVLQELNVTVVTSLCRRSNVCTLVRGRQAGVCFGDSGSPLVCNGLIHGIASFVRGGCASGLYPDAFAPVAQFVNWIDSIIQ
Experiment: Inhibition of human polymorphonuclear leukocyte (granulocyte) elastase via hydrolysis of Boc-AAPAN or Boc-AAPVN
Assay type: biochemical
Settings: Table I; read-out: Ki, concentration of the inhibitor giving 50% of the control enzyme activity
Description: Enzyme Assays for the Inhibition of Human Polymorphonuclear Leukocyte Elastase Via Hydrolysis of N-t-Boc-alanyl-alanyl-prolylalanine-p-nitroanilide (Boc-AAPAN) or N-t-Boc-alanyl-prolylvaline-p-nitroanilide (Boc-AAPVN) Reagent:
0.05M TES (N-tris[hydroxymethyl]methyl-2-amino-ethanesulfonic acid) Buffer, pH 7.5.
0.2 mM Boc-AAPAN or Boc-AAPVN.
To prepare substrate, the solid was first dissolved in 10.0 ml DMSO. Buffer at pH 7.5 was then added to a final volume of 100 ml.
Crude extract of human polymorphonuclear leukocytes (PMN) containing elastase activity.
Inhibitors (azetidinones) to be tested dissolved in DMSO just before use.
To 1.0 ml of 0.2 mM Boc-AAPAN in a cuvette, 0.01-0.1 ml of DMSO with or without inhibitor was added. After mixing, a measurement was taken at 410 mμ to detect any spontaneous hydrolysis due to presence of test compound. 0.05 Milliliters of PMN extract was then added and the ΔOD/min at 410 mμ was measured and recorded. Beckman model 35 spectrophotometer was used.
Results were also expressed as Ki, the micromolar concentration of the inhibitor (μM) giving 50% of the control enzyme activity; or as ^k obs/I which is the second order rate constant in per mole per second for inactivation of the enzyme.
The elastase activity in the crude PMN extract may vary from one preparation to another. A control of each new batch is run, and the volume added in the assay procedure is adjusted according to activity.

Row | Structure (SMILES) | Ki [nM]
1 | CCC1C(=O)N(C(C)=O)C1OC(=O)CCC(=O)O (centres unmarked) | 2000
2 | CCC1C(=O)N(C(=O)CCC(=O)O)C1OC(C)=O (centres unmarked) | 1430
3 | CC[C@H]1C(=O)N(S(=O)(=O)c2ccc(C)cc2)[C@H]1C(=O)N1CCCC1 (relative stereo) | 27700
4 | CC[C@H]1C(=O)N(C(C)=O)[C@@H]1Oc1ccc(C(=O)O)cc1 (relative stereo) | 3400
5 | CC[C@H]1C(=O)N(C(=O)NC)[C@@H]1Oc1ccc(C(=O)O)cc1 (relative stereo) | 16500
6 | CCOC(=O)N1C(=O)[C@H](CC)[C@H]1Oc1ccc(C(=O)O)cc1 (relative stereo) | 2100

Same assay, conditions: pH 7.5, Table II, (per mole per second); read-out: kobs/I, second order rate constant of inactivation of the enzyme

Row | kinact/KI [M⁻¹ s⁻¹] | Structure (SMILES)
7 | 200 | CCC1(CC)C(=O)N(C(=O)NCc2ccccc2)C1n1ccnc1 (centres unmarked)
8 | 2960 | CCC1(CC)C(=O)N(C(=O)NCc2ccccc2)C1Oc1ccccc1CO (centres unmarked)
9 | 5560 | CCC1(CC)C(=O)N(C(=O)NCc2ccccc2)C1Oc1ccc2cc(C(=O)O)ccc2c1 (centres unmarked)
10 | 3050 | CCC1(CC)C(=O)N(C(=O)NCc2ccccc2)C1Oc1cccc(C(=O)NCc2ccccc2)c1 (centres unmarked)
11 | 1760 | CCC1(CC)C(=O)N(C(=O)NCc2ccccc2)C1Oc1cccc(C(=O)O)c1 (centres unmarked)
12 | 3180 | CCC1(CC)C(=O)N(C(=O)NCc2ccccc2)C1Oc1ccc(CC(=O)O)cc1 (centres unmarked)
13 | 2810 | CCC1(CC)C(=O)N(C(=O)NCc2ccc(C(=O)O)cc2)C1Oc1ccc(C(C)=O)cc1 (centres unmarked)
14 | 5920 | CCC1(CC)C(=O)N(C(=O)NCc2ccc(C(C)=O)cc2)C1Oc1ccc(C(C)=O)cc1 (centres unmarked)
15 | 13200 | CCC1(CC)C(=O)N(C(=O)NCc2cc3ccccc3o2)C1Oc1ccc(C(=O)O)cc1 (centres unmarked)
16 | 5220 | CCC1(CC)C(=O)N(C(=O)NCc2ccco2)C1Oc1ccc(C(=O)O)cc1 (centres unmarked)
17 | 4920 | CCC1(CC)C(=O)N(C(=O)NCc2cccs2)C1Oc1ccc(C(=O)O)cc1 (centres unmarked)
18 | 3420 | CCC1(CC)C(=O)N(C(=O)NCc2ccc(Cl)cc2)C1Oc1ccc(C(=O)O)cc1 (centres unmarked)
19 | 9980 | CCC1(CC)C(=O)N(C(=O)NCc2ccc(N(C)C)cc2)C1Oc1ccc(C(=O)O)cc1 (centres unmarked)
20 | 12000 | CCC1(CC)C(=O)N(C(=O)NCc2ccc(Oc3ccccc3)cc2)C1Oc1ccc(C(=O)O)cc1 (centres unmarked)
21 | 1420 | CCC1(CC)C(=O)N(C(=O)NCC2CCCCC2)C1Oc1ccc(C(=O)O)cc1 (centres unmarked)
22 | 36200 | CCC1(CC)C(=O)N(C(=O)NCc2ccc3cc4ccccc4cc3c2)C1Oc1ccc(C(=O)O)cc1 (centres unmarked)
23 | 3960 | CCC1(CC)C(=O)N(C(=O)NCc2ccc(C)cc2)C1Oc1ccc(C(=O)O)cc1 (centres unmarked)
24 | 2340 | CCC1(CC)C(=O)N(C(=O)NCc2ccc(F)cc2)C1Oc1ccc(C(=O)O)cc1 (centres unmarked)

Row | kinact/KI [M⁻¹ s⁻¹] | Structure (SMILES)
25 | 5080 | CCC1(CC)C(=O)N(C(=O)NCc2ccc([N+](=O)[O-])cc2)C1Oc1ccc(C(=O)O)cc1 (centres unmarked)
26 | 5160 | CCC1(CC)C(=O)N(C(=O)NCc2ccc(OC)cc2)C1Oc1ccc(C(=O)O)cc1 (centres unmarked)
27 | 37000 | CCC1(CC)C(=O)N(C(=O)NCc2ccc(-c3ccccc3)cc2)C1Oc1ccc(C(=O)O)cc1 (centres unmarked)
28 | 1730 | CCC1(CC)C(=O)N(C(=O)NCc2ccc(C(=O)NS(=O)(=O)c3ccc(Cl)cc3)cc2)C1Oc1ccc(C(=O)O)cc1 (centres unmarked)
29 | 14100 | CCC1(CC)C(=O)N(C(=O)NC(C)c2cccc3ccccc23)C1Oc1ccc(C(=O)O)cc1 (centres unmarked)
30 | 20800 | CCC1(CC)C(=O)N(C(=O)NC(C)c2ccc(C3CCCCC3)c(Cl)c2)C1Oc1ccc(C(=O)O)cc1 (centres unmarked)
31 | 4540 | CCC1(CC)C(=O)N(C(=O)NCCCc2ccccc2)C1Oc1ccc(C(=O)O)cc1 (centres unmarked)
32 | 4200 | CCC1(CC)C(=O)N(C(=O)NCCCCC(O)c2ccccc2)C1Oc1ccc(C(=O)O)cc1 (centres unmarked)
33 | 3450 | CCC1(CC)C(=O)N(C(=O)NCCCCOc2ccccc2)C1Oc1ccc(C(=O)O)cc1 (centres unmarked)
34 | 10900 | CCC1(CC)C(=O)N(C(=O)NCCCCc2ccccc2)C1Oc1ccc(C(=O)O)cc1 (centres unmarked)
35 | 8300 | CCCCCCCCCNC(=O)N1C(=O)C(CC)(CC)C1Oc1ccc(C(=O)O)cc1 (centres unmarked)
36 | 107000 | CCC1(CC)C(=O)N(C(=O)NCc2ccc(-c3ccccc3)cc2)C1Oc1ccc(C(=O)CCC(=O)O)cc1 (centres unmarked)
37 | 2570 | CCC1(CC)C(=O)N(C(=O)NCc2ccccc2)C1Oc1ccc(NC(=O)CCC(=O)O)cc1 (centres unmarked)
38 | 3500 | CCC1(CC)C(=O)N(C(=O)NCc2ccccc2)C1Oc1ccc(NC(C)=O)cc1 (centres unmarked)
39 | 6850 | CCC1(CC)C(=O)N(C(=O)NCc2ccccc2)C1Oc1ccc([N+](=O)[O-])cc1 (centres unmarked)
40 | 1700 | CCC1(CC)C(=O)N(C(=O)NCc2ccccc2)C1Oc1ccc([N+](C)(C)C)cc1 (centres unmarked)
41 | 1500 | CCC1(CC)C(=O)N(C(=O)NCc2ccc(C(=O)O)cc2)C1Oc1ccccc1 (centres unmarked)
42 | 54000 | CCCC1(CC)C(=O)N(C(=O)NC(CC)c2ccccc2)C1Oc1ccc(CC(=O)O)cc1 (centres unmarked)

Same assay, conditions: pH 7.5, read-out: kobs/I, second order rate constant of inactivation of the enzyme

Row | Structure (SMILES) | kinact/KI [M⁻¹ s⁻¹]
43 | CCC1C(=O)N(C(C)=O)C1OC(=O)CCC(=O)O (centres unmarked) | 4510
44 | CCC1C(=O)N(C(=O)CCC(=O)O)C1OC(C)=O (centres unmarked) | 2250
45 | CC[C@H]1C(=O)N(S(=O)(=O)c2ccc(C)cc2)[C@H]1C(=O)N1CCCC1 (relative stereo) | 541
46 | CC[C@H]1C(=O)N(C(C)=O)[C@@H]1Oc1ccc(C(=O)O)cc1 (relative stereo) | 8730
47 | CCOC(=O)N1C(=O)[C@H](CC)[C@H]1Oc1ccc(C(=O)O)cc1 (relative stereo) | 8680
